From ChEMBL document CHEMBL1938271, “Dimeric ent-kaurane diterpenoids from Isodon excisus” (J Nat Prod, 2011) come the findings set out here.

This assay relates to RAW264.7. Briefly: Antiinflammatory activity in mouse RAW264.7 cells assessed as inhibition of LPS-stimulated nitric oxide production. Type of assay: functional, cell-based.
As to `CC(=O)O[C@H]1C[C@H]2C[C@@]3(C[C@H](O)[C@@H]4C(C)(C)[C@@H](OC(C)=O)C[C@H](O)[C@@]4(C)[C@H]13)C(=O)[C@]2(O)CC[C@@]1(O)C(=O)[C@]23C[C@@H]1C[C@H](O)[C@H]2[C@]1(C)[C@@H](OC(C)=O)C[C@H](OC(C)=O)C(C)(C)[C@H]1[C@@H](O)C3` (relative stereo), the concentration for half-maximal inhibition (IC50) was over 50 µM.
Regarding `CC(=O)O[C@H]1C[C@H]2C[C@@]3(C[C@H](O)[C@@H]4C(C)(C)[C@@H](OC(C)=O)C[C@H](O)[C@@]4(C)[C@H]13)C(=O)[C@]21CCC2=C(O1)[C@]13C[C@@H]2C[C@H](OC(C)=O)[C@H]1[C@@]1(C)[C@H]([C@@H](O)C3)C(C)(C)[C@@H](OC(C)=O)C[C@@H]1O` (relative stereo), the half-maximal inhibitory concentration (IC50) was over 50 µM.
Under `CC(=O)O[C@H]1C[C@H]2C[C@@]3(C[C@H](O)[C@@H]4C(C)(C)[C@@H](OC(C)=O)C[C@H](O)[C@@]4(C)[C@H]13)C(=O)O[C@]1(CCC2=O)C(=O)[C@]23C[C@@H]1C[C@H](OC(C)=O)[C@H]2[C@@]1(C)[C@H]([C@@H](O)C3)C(C)(C)[C@@H](OC(C)=O)C[C@@H]1O` (relative stereo) stands over 50 µM.
For `CC(=O)O[C@H]1C[C@H]2C[C@@]3(CC(=O)[C@@H]4C(C)(C)[C@@H](OC(C)=O)C[C@H](O)[C@@]4(C)[C@H]13)C(=O)[C@]21CCC(=O)[C@H]2C[C@H](OC(C)=O)[C@@H]3[C@](C2)(C[C@H](O)[C@@H]2C(C)(C)[C@@H](OC(C)=O)C[C@H](O)[C@]23C)C(=O)O1` (relative stereo) the value was over 50 µM; for `CC(=O)O[C@H]1C[C@H]2C[C@@]3(CC(=O)[C@@H]4C(C)(C)[C@@H](OC(C)=O)C[C@H](O)[C@@]4(C)[C@H]13)C(=O)O[C@]1(CCC2=O)C(=O)[C@]23C[C@@H]1C[C@H](OC(C)=O)[C@H]2[C@@]1(C)[C@H]([C@@H](O)C3)C(C)(C)[C@@H](OC(C)=O)C[C@@H]1O` (relative stereo), over 50 µM.
Take `N=C(N)NN` [PIMAGEDINE]: the half-inhibitory concentration (IC50) stood at 27.5 µM.
